Measured values as given in US20100093692A1, “PIPERIDINYL-PIPERIDINE AND PIPERAZINYL-PIPERIDINE FOR USE IN THE TREATMENT OF DIABETES OR PAIN” (Schering Corporation Sechering-Plough Corporation, priority 2007, published 2010).
Structures can show the parent of a compound that is named as a salt.

Experiments:
[1] = molecular target: T1, H3 receptors (Cavia porcellus, UniProt Q9JI35); experiment: Guinea pig H3 receptor binding assay; settings: guinea pig brain membranes; [3H]R-α-methyl histamine or [3H]Nα-methyl histamine; range stated for a group of compounds
T1 construct: The source of the H3 receptors in this experiment was guinea pig brain; from tissue; host or cells: guinea pig brain membranes
Protocol: The source of the H3 receptors in this experiment was guinea pig brain obtained from animals weighing 400-600 g. The brain tissue was homogenized with a solution of 50 mM Tris, pH 7.5. The final concentration of tissue in the homogenization buffer was 10% w/v. The homogenates were centrifuged at 1,000×g for 10 minutes in order to remove clumps of tissue and debris. The resulting supernatants were then centrifuged at 50,000×g for 20 minutes in order to sediment the membranes, which were then washed three times in homogenization buffer (50,000×g for 20 minutes each). The membranes were frozen and stored at −70° C. until needed.
All compounds to be tested were dissolved in DMSO and then diluted into the binding buffer (50 mM Tris, pH 7.5) such that the final concentration was 2 μg/mL with 0.1% DMSO. Membranes were then added (400 μg of protein) to the reaction tubes. The reaction was started by the addition of 3 nM [^3H]R-α-methyl histamine (8.8 Ci/mmol) or 3 nM [^3H]N^α-methyl histamine (80 Ci/mmol) and continued under incubation at 30° C. for 30 minutes. Bound ligand was separated from unbound ligand by filtration, and the amount of radioactive ligand bound to the membranes was quantitated by liquid scintillation spectrometry. All incubations were performed in duplicate and the standard error was always less than 10%. Compounds that inhibited more than 70% of the specific binding of radioactive ligand to the receptor were serially diluted to determine a Ki (nM).

[2] = molecular target: T2, human histamine H3 receptor (Homo sapiens, UniProt Q9Y5N1); experiment: Human H3 receptor binding assay; settings: HEK-293 membranes expressing human H3; 1 nM [3H]N-α-methylhistamine; n=4
T2 construct: The full-length human histamine H3 receptor was cloned by PCR; expressed in transfected cells
Protocol: The full-length human histamine H3 receptor was cloned by PCR from a human thalamus cDNA library, with primers derived from a public database, and inserted into the CMV promoter-driven expression vector pcDNA-3.1 (Invitrogen). HEK-293 human embryonic kidney cells (ATCC) were transfected with H3 receptor plasmid and stably expressing cells were selected with G-418. Cells were grown in Dulbecco's modified Eagle's medium/10% fetal calf serum containing high glucose, 25 mM Hepes, penicillin (100 U/ml), streptomycin (100 ug/ml), 2 mM glutamine, and 0.5 mg G-418/ml at 37° C. in a humidified atmosphere of 5% CO2. For membrane preparations, cells were harvested using aspirating media, replacing it with 5 mM EDTA/0.02% trypsin/Hank's balanced salt solution, followed by incubation at 37° C. for 5 to 10 minutes. […] Nonspecific binding was determined in the presence of 10^-5 M thioperamide. After a 30 minute incubation at 30° C., assay mixtures were filtered through 0.3% polyethylenimine-soaked GF/B glass fiber filters, which were then rinsed thrice with buffer, dried, impregnated with Meltilex wax scintillant, and counted. IC50 values were determined from curves fit to the data using a non-linear, least-squares, curve-fitting program and Ki values were determined using the method of Cheng and Prusoff.

[3] = test system: STZ-DIO Sprague-Dawley rats (T2DM); experiment: In vivo effect on glucose and HbA1c in STZ-DIO diabetic rats; set-up: species or system rat; settings: two weeks
Protocol: Seventy male DIO Sprague-Dawley rats were fed HFD (45% Kcal fat) for 3 months from weaning, and were given streptozotocin (STZ) intraperitoneally at 25 mg/kg to induce type 2 diabetes (T2DM). Forty four T2DM rats were chosen for the study two weeks after STZ injection (n=11 per group, with body weights between 632 and 838 g, non-fasting glucose between 226 and 426 mg/dl and HbA1c between 8.7% and 10.9%) and were given ad libitum access to pre-weighed 45% fat (kcal) HFD or Compound 287 (1.4, 2.9 mg/g in HFD) for two weeks. Body weight, non-fasting glucose and food intake were monitored daily. Body composition and HbA1c levels were monitored before and after the two-week study by the whole body magnetic resonance analyzer and Cholestech GDX analyzer (Hayward, Calif.), respectively. The STZ-DIO rats had elevated non-fasting glucose and HbA1c levels (non-fasting glucose were between 226 and 426 mg/dl; and HbA1c were between 8.7% and 10.9%) two weeks after STZ injection. The low dose of STZ caused a 48% reduction of plasma insulin levels, which was not sufficient to cause hyperglycemia in rats fed with chow diet. In contrast, this level of plasma insulin induced hyperglycemia in the face of insulin resistance induced by the HFD. […] The control STZ-DIO rats maintained non-fasting glucose levels above […] (+12 mg/dl), which led to a significant 0.96% increase in HbA1c over 14 days.

[4] = test system: diabetic Goto-Kakizaki rats; experiment: In vivo effect on glucose levels in diabetic Goto-Kakizaki rats; set-up: species or system rat; settings: 10 mg/kg/day in food chow, one week; untreated rats 34 mg/dl
Protocol: Adult, diabetic, Goto-Kakizaki rats (14 weeks old) were tested for non-fasting glucose levels using a glucometer. Rats with glucose levels between 130 and 370 mg/dl were randomized into treatment (N=10) and control (N=10) groups. Animals in the treatment group were administered Compound 446 in their food chow at a dose of 10 mg/kg/day. After one week of treatment, blood was collected via tail snip and the non-fasting glucose level was measured using a glucometer.

[5] = test system: STZ-induced type 2 diabetic mice; experiment: In vivo effect on glucose levels in diabetic mice (western diet + low dose STZ); set-up: species or system mouse; settings: 10 mg/kg/day in diet, four weeks; relative to control mice and mice treated with rosiglitazone (5 mg/kg/day in diet)
Protocol: Five-week-old male ICR mice were purchased from Taconic Farm (Germantown, N.Y.) and placed on a “western diet” containing 45% (kcal) fat from lard and 0.12% (w/w) cholesterol. After 3 weeks of feeding, the mice were injected once with low dose streptozocin (STZ, ip 80 mg/kg) to induce partial insulin deficiency. […] The diabetic mice were then placed in one of three groups: (1) a non-treated control group, (2) a group treated with rosiglitazone (5 mg/kg/day in diet); or (3) a group treated with Compound 446 (10/mg/kg/day in diet). All animals were treated for four weeks.

T1 sequence (Q9JI35 whole entry): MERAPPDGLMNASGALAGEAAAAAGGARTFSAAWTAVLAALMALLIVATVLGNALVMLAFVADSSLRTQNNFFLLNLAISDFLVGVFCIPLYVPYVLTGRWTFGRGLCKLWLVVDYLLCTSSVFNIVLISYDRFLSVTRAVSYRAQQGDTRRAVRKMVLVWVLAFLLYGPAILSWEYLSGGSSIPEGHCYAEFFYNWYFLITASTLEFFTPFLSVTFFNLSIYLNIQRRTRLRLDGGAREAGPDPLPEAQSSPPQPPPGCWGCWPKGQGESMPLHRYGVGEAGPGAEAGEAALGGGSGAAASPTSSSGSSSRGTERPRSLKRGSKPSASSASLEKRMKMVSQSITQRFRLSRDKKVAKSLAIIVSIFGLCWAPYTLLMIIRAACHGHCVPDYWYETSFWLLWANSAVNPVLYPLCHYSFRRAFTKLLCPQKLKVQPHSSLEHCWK
T2 sequence (Q9Y5N1 whole entry): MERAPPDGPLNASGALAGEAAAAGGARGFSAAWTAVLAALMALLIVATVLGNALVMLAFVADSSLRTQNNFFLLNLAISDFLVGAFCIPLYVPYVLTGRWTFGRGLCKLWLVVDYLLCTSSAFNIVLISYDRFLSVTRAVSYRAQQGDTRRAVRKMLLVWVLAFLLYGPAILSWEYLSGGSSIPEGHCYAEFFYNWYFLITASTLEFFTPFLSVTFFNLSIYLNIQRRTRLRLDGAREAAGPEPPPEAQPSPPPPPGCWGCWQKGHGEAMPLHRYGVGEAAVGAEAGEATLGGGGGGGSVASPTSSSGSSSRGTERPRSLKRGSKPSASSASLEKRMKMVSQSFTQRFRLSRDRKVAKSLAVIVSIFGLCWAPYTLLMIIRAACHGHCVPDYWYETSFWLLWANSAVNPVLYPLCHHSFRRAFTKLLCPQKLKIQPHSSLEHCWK

SMILES | Ki [1] [µM] | other results
Nc1cc(CN2CCC(C(=O)N3CCC(C(=NO)c4ccccn4)CC3)CC2)ccn1 [Compound 237] | 0.00083 to 0.016 | –
CO/N=C(/c1ccc(Cl)cc1)C1CCN(C(=O)C2CCN(Cc3ccncc3)CC2)CC1 [Compound 273] | 0.00083 to 0.016 | –
CON=C(CC1CCN(C(=O)C2CCN(Cc3ccnc(N)c3)CC2)CC1)c1ccccn1 (as salt: maleate) [Compound 117] | – | melting point: 160 to 163 °C
CO/N=C(/c1ccc(Cl)cc1)C1CCN(C(=O)C2CCN(Cc3ccnc(N)c3)CC2)CC1 [Compound 225] | 0.00083 to 0.016 | –
CO/N=C(\c1ccccn1)C1CCN(C(=O)C2CCN(Cc3ccnc(N)c3)CC2)CC1 [Compound 33] | 0.00083 to 0.016 | –
CO/N=C(/c1ccccn1)C1CCN(C(=O)C2CCN(Cc3cnc(N)nc3)CC2)CC1 [Compound 287] | – | Ki [2]: 0.025 ± 0.004 µM; decrease in HbA1c level ([3]; 68 mg/kg/day, 2.9 mg/g in HFD, control 0.96% increase): 0.6%; change in non-fasting glucose ([3]; 68 mg/kg/day, 2.9 mg/g in HFD, control +12 mg/dl): -43 mg/dL; HbA1c levels over the two week study period ([3]; 1.4, 2.9 mg/g in HFD): dose-dependent reduction
Nc1cc(CN2CCC(C(=O)N3CCC(C(=O)c4ccccn4)CC3)CC2)ccn1 [Compound 30] | 0.00083 to 0.016 | –
CON=C(c1ccc(Cl)cc1)C1CCN(C(=O)C2CCN(Cc3ccnc(N)c3)CC2)CC1 [Compound 280] | 0.00083 to 0.016 | –
CON=C(c1ccccn1)C1CCN(C(=O)C2CCN(Cc3ccnc(N)c3)CC2)CC1 [Compound 31] | 0.00083 to 0.016 | –
CO/N=C(/c1ccccn1)C1CCN(C(=O)C2CCN([C@H](C)c3ccnc(N)c3)CC2)CC1 [Compound 55] | 0.00083 to 0.016 | –
CO/N=C(/c1ccccn1)C1CCN(C(=O)C2CCN([C@@H](C)c3ccnc(N)c3)CC2)CC1 [Compound 54] | 0.00083 to 0.016 | –
CO/N=C(\c1ccccn1)C1CCN(C(=O)C2CCN([C@@H](C)c3ccnc(N)c3)CC2)CC1 [Compound 56] | 0.00083 to 0.016 | –
CO/N=C(/c1ccccn1)C1CCN(C(=O)C2(F)CCN(Cc3ccnc(N)c3)CC2)CC1 [Compound 446] | – | average reduction in non-fasting glucose levels [4]: 81 mg/dL; HbA1C levels [5]: significantly reduced; non-fasting glucose levels [5]: significantly reduced
CO/N=C(/c1ccccn1)C1CCN(C(=O)C2CCN(Cc3ccnc(N)c3)CC2)CC1 [Compound 32] | 0.00083 to 0.016 | –
